# From US20100221763A1, “Specific Acceptors for Transferases to Saccharides and Method for Obtaining and Using Same” (Health Research, Inc, priority 2005, published 2010)
# Columns and labels:
# [1] = target: T1, Rat recombinant α2,3(O)ST (Rattus norvegicus, UniProt Q11205); experiment: Sialyltransferase assay with cloned α2,3(O)ST; format: biochemical; settings: for Km / Vmax: CMP-NeuAc 150 μM, Lineweaver-Burke plot
# T1 construct: purchased Calbiochem
# T1 sequence (Q11205 1-350): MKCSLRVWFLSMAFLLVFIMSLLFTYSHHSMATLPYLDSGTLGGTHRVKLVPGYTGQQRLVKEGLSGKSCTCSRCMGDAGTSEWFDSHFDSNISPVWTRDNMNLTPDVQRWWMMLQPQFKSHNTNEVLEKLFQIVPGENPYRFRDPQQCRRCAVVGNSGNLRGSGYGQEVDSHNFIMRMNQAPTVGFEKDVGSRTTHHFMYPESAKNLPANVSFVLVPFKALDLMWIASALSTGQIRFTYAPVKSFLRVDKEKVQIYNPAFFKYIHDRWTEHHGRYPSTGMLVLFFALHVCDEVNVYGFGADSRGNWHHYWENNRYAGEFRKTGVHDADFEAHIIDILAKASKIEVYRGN
# Description: (§1) Rat recombinant α2,3(O)ST, α2,3(N)ST and α2,6(N)ST were purchased from Calbiochem and stored at either −20° C. or −70° C. as recommended by the supplier. […] 10 μl aliquots of the diluted enzymes were used in the assays run in duplicate.
# (§2) The incubation mixtures run in duplicate contained 0.1M NaCacodylate buffer pH6.0, the acceptor (typically at 7.5 mM, or as indicated in some experiments), CMP-[9 ^3H] NeuAc (typically 0.2 μci; 20 μci/nmol or as indicated in some experiments) and the enzyme in a total volume of 20 μl. The control incubation mixtures contained everything except the acceptor. Incubation was carried out for 2 h at 37° C. The enzymatic transfer of [9-^3H] NeuAc to a typical acceptor was linear for 2 h and less than 30% CMP-[9-^3H] NeuAc was utilized. Chromatography, using either Dowex-1-Formate, Sep-Pak C18 or Biogel P2, was applied to separate radioactive product from un-reacted [9-^3H] NeuAc as described below.
# (§3) The radioactive products from neutral allyl and methyl glycosides as well as non-glycosides were measured by fractionation on Dowex-1-Formate (Bio-Rad: AG-1X8; 200-400 mesh; format form) as follows: The incubation mixture was diluted with 1.0 ml water and passed through AG-1-formate column (1.0 ml bed volume in a Pasteur pipet which had been washed with 5 ml of 2M Formic acid followed by 10 ml water). The column was washed twice with 1.0 ml water after the entry of the sample and then eluted with 3.0 ml of 0.1M NaCl. The radioactivity present in water and 0.1M NaCl eluates were measured separately using 3a70 scintillation cocktail (Research Products International, Mount Prospect, Ill.) and a Beckman LS6500 scintillation counter. The CPM values were corrected by subtracting the blank CPM. Any radioactivity present in the water eluate (as noticed in the case of some methylglycosides) was added to the corresponding CPM value of 0.1M NaCl eluate. The radioactive products from sulfated and/or sialylated methylglycosides were also measured by the above procedure, only the elution of the AG-1-Formate column was continued further with 3.0 ml of 0.2M NaCl for achieving a complete elution of the radioactive product, a correction being made as before by subtracting the corresponding blank values.
# (§4) The radioactive products from benzylglycosides and monosialylated benzylglycosides were measured by hydrophobic chromatography on Sep-Pak C18 cartridge (Waters, Milford, Mass.) and eluting the product with 3.0 ml methanol (30). The radioactivity was determined by liquid scintillation as above.
# (§5) For such work, a Biogel P2 column (Fine Mesh; 1.0×116.0 cm) was used with 0.1M pyridine acetate pH5.4 as the eluent at room temperature. The effluent fractions were monitored for radioactivity and the first peak containing radioactivity was collected, lyophilized to dryness, dissolved in 200 μl of water and stored frozen at −20° C. for thin layer chromatography (TLC) and other experimentation.
# LNCaP α2,3(O)ST = experiment: Sialyltransferase assay with LNCaP cell extract; format: biochemical, human
# Description: The prostate carcinoma cell line, LNCaP, was grown in RPMI 1640 supplemented with 10% fetal bovine serum and antibiotics (penicillin, streptomycin and amphotericin B) under conditions recommended by American Type Culture Collection (Manassas, Va.). The cells were homogenized with 0.1M Tris-Maleate pH6.3 containing 2% Triton X-100 using a Dounce all glass hand-operated homogenizer. The homogenate was centrifuged at 16,000 g for 1 h at 4° C. Protein concentration in supernatant was measured using the BCA assay (Pierce Biotech, Inc., Rockford, Ill.), with BSA as the standard. The supernatant was adjusted to 5 mg protein/ml by adding the necessary amount of extraction buffer and then stored frozen at −20° C. until use. 10 μl aliquot of this extract was used in assays run in duplicate.
# as §2, §3, §4, §5
# [2] = target: T2, Rat recombinant α2,3(N)ST (Rattus norvegicus, UniProt Q02734); experiment: Sialyltransferase assay with cloned α2,3(N)ST; format: biochemical; settings: Table I; acceptor 7.5 mM; 100% = 29520 CPM (Galβ1,4GlcNAcβ-O—Al)
# T2 construct: purchased Calbiochem
# T2 sequence (Q02734 29-374 limits assumed): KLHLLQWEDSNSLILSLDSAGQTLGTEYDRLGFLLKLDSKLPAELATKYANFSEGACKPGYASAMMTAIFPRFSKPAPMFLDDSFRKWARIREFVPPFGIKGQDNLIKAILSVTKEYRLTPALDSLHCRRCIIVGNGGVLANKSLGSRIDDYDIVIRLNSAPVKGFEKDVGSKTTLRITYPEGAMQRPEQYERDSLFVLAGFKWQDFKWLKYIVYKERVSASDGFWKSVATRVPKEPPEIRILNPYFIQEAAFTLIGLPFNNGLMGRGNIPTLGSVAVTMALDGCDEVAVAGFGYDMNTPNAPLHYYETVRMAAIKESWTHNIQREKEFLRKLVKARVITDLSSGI
# Description: as §1, §2, §3, §4, §5
# [3] = Table I, acceptor 7.5 mM, 100% = 40560 CPM (3-O-MeGalβ1,4GlcNAcβ1,6(Galβ1,3)GalNAcα-O-Bn)
# [4] = Table II, acceptor 0.75 mM, relative to Galβ1,3GalNAcα-O-Bn
# [5] = Table II, acceptor 7.5 mM, relative to Galβ1,3GalNAcα-O-Bn
# [6] = Table IV, compound 7.5 mM, relative to Galβ1,3(GlcNAcβ1,6)GalNAcα-O—Al
# [7] = Table I, acceptor 7.5 mM, 100% = 30930 CPM (3-O-MeGalβ1,4GlcNAcβ1,6(Galβ1,3)GalNAcα-O-Bn)
Km [1] [µM],Vmax [1] [pmol/h],"Sialyltransferase activity (%) Cloned α2,3(O)ST [1, 4]",SMILES,"Sialyltransferase activity (%) LNCaP α2,3(O)ST (LNCaP α2,3(O)ST; [4]) [%]",other results
–,–,–,"COC1OC(COC2OC(COS(=O)(=O)O)C(OC3OC(CO)C(O)C(OC4(C(=O)O)CC(O)C(NC(C)=O)C(C(O)C(O)CO)O4)C3O)C(OC3OC(C)C(O)C(O)C3O)C2NC(C)=O)C(O)C(OC2OC(CO)C(O)C(O)C2O)C1NC(C)=O (centres unmarked) [NeuAcα2,3Galβ1,4(6-O-Sulfo)(Fucα1,3)GlcNAcβ1,6(Galβ1,3)GalNAcα-O-Me]",–,"Sialyltransferase activity (%) Cloned α2,3(O)ST [1, 3]: 7.4%"
250,1442,104.6^10%,"CC(=O)N[C@H]1[C@@H](OCc2ccccc2)O[C@H](CO)[C@H](O)[C@@H]1O[C@@H]1O[C@H](CO)[C@H](F)[C@H](O)[C@H]1O [4-F-Galβ1,3GalNAcα-O-Bn]",44.8,"Sialyltransferase activity (%) Cloned α2,3(O)ST [1, 5]: 102.3^10%; Sialyltransferase activity (%) LNCaP α2,3(O)ST (LNCaP α2,3(O)ST; [5]): 105.1%"
–,–,70.4%,"CO[C@H]1[C@@H](O)[C@@H](CO)O[C@@H](O[C@H]2[C@@H](O)[C@@H](CO)O[C@H](OCc3ccccc3)[C@@H]2NC(C)=O)[C@@H]1O [3-O-MeGalβ1,3GalNAcα-O-Bn]",2.6,"Sialyltransferase activity (%) Cloned α2,3(O)ST [1, 5]: 101.8%; Sialyltransferase activity (%) LNCaP α2,3(O)ST (LNCaP α2,3(O)ST; [5]): 15.5%"
–,–,–,"CC(=O)NC1C(OCC2OC(OCc3ccccc3)C(NC(C)=O)C(OC3OC(CO)C(O)C(OS(=O)(=O)O)C3O)C2O)OC(CO)C(O)C1O (centres unmarked) [3-O-SulfoGalβ1,3(GlcNAcβ1,6)GalNAcα-O-Bn, 3-O-SulfoGalβ1,3(GlcNAcβ1,6) GalNAcα-O-Bn]",–,"Sialyltransferase activity (%) Cloned α2,3(O)ST [1, 6]: 54.7%"
130,1250,104.6^9%,"CO[C@@H]1[C@H](O)[C@@H](O)[C@H](O[C@H]2[C@@H](O)[C@@H](CO)O[C@H](OCc3ccccc3)[C@@H]2NC(C)=O)O[C@@H]1CO [4-O-MeGalβ1,3GalNAcα-O-Bn]",141.5,"Sialyltransferase activity (%) Cloned α2,3(O)ST [1, 5]: 105.0^9%; Sialyltransferase activity (%) LNCaP α2,3(O)ST (LNCaP α2,3(O)ST; [5]): 188.7%"
–,–,–,"CO[C@H]1[C@@H](O)[C@@H](CO)O[C@@H](O[C@H]2[C@@H](O)[C@@H](CO[C@@H]3O[C@H](CO)[C@@H](O)[C@H](O)[C@H]3NC(C)=O)O[C@H](OCc3ccccc3)[C@@H]2NC(C)=O)[C@@H]1O [3-O-MeGalβ1,3(GlcNAcβ1,6)GalNAcα-O-Bn, 3-O-MeGalβ1,3(GlcNAcβ1,6) GalNAcα-O-Bn]",–,"Sialyltransferase activity (%) Cloned α2,3(O)ST [1, 6]: 24.7%"
–,–,55.9%,"COC[C@H]1O[C@H](OCc2ccccc2)[C@H](NC(C)=O)[C@@H](O[C@@H]2O[C@H](CO)[C@H](O)[C@H](OC)[C@H]2O)[C@H]1O [3-O-MeGalβ1,3(6-O-Me)GalNAcα-O-Bn]",1.1,–
1250,416,–,"COC1OC(CO)C(O)C(OC2OC(CO)C(O)C(OC3OC(CO)C(O)C(OS(=O)(=O)O)C3O)C2NC(C)=O)C1O (centres unmarked) [3-O-SulfoGalβ1,3GalNAcβ1,3Galα-O-Me]",–,–
–,–,–,"CC(=O)NC1C(OC2C(O)C(CO)OC(OC3C(CO)OC(OCc4ccccc4)C(NC(C)=O)C3O)C2O)OC(CO)C(OC2OC(CO)C(O)C(O)C2O)C1O (centres unmarked) [Galβ1,4GlcNAcβ1,3Galβ1,4GlcNAcβ-O-Bn]",–,"Sialyltransferase activity (%) Cloned α2,3(O)ST [1, 3]: 8.7%"
–,–,107.6^11%,"COC[C@H]1O[C@H](OCc2ccccc2)[C@H](NC(C)=O)[C@@H](O[C@@H]2O[C@H](CO)[C@H](O)[C@H](O)[C@H]2O)[C@H]1O [Galβ1,3(6-O-Me)GalNAcα-O-Bn]",119.2,"Sialyltransferase activity (%) Cloned α2,3(O)ST [1, 5]: 107.3^11%; Sialyltransferase activity (%) LNCaP α2,3(O)ST (LNCaP α2,3(O)ST; [5]): 189.4%"
2000,624,–,"CO[C@H]1O[C@H](CO)[C@H](O)[C@H](O[C@@H]2O[C@H](CO)[C@H](O)[C@H](O[C@@H]3O[C@H](C)[C@H](O)[C@H](OS(=O)(=O)O)[C@H]3O)[C@H]2NC(C)=O)[C@H]1O [3-O-SulfoD-Fucβ1,3GalNAcβ1,3Galα-O-Me]",–,–
–,–,–,"CO[C@H]1O[C@H](CO[C@@H]2O[C@H](CO)[C@@H](O[C@@H]3O[C@H](CO)[C@H](O)[C@H](O)[C@H]3NC(C)=O)[C@H](O[C@@H]3O[C@@H](C)[C@@H](O)[C@@H](O)[C@@H]3O)[C@H]2NC(C)=O)[C@H](O)[C@H](O[C@@H]2O[C@H](CO)[C@H](O)[C@H](O)[C@H]2O)[C@H]1NC(C)=O [GalNAcβ1,4(Fucα1,3)GlcNAcβ1,6(Galβ1,3)GalNAcα-O-Me]",–,"Sialyltransferase activity (%) Cloned α2,3(O)ST [1, 3]: 134.9%; Sialyltransferase activity (%) LNCaP α2,3(O)ST (LNCaP α2,3(O)ST; [7]): 21.1%"
–,–,–,"CC(=O)N[C@H]1[C@H](OC[C@H]2O[C@H](OCc3ccccc3)[C@H](NC(C)=O)[C@@H](O[C@@H]3O[C@H](CO)[C@H](O)[C@H](O[C@@]4(C(=O)O)C[C@H](O)[C@@H](NC(C)=O)[C@H]([C@H](O)[C@H](O)CO)O4)[C@H]3O)[C@H]2O)O[C@H](CO)[C@@H](O[C@@H]2O[C@H](CO)[C@H](O)[C@H](O)[C@H]2O)[C@@H]1O[C@@H]1O[C@@H](C)[C@@H](O)[C@@H](O)[C@@H]1O [Galβ1,4(Fucα1,3)GlcNAcβ1,6(NeuAcα2,3Galβ1,3)GalNAcα-O-Bn]",–,"Sialyltransferase activity (%) Cloned α2,3(N)ST [2]: 27.1%"
–,–,–,"COC1OC(COC2OC(CO)C(OC3OC(CO)C(O)C(OC4(C(=O)O)CC(O)C(NC(C)=O)C(C(O)C(O)CO)O4)C3O)C(O)C2NC(C)=O)C(O)C(OC2OC(CO)C(O)C(O)C2O)C1NC(C)=O (centres unmarked) [NeuAcα2,3Galβ1,4GlcNAcβ1,6(Galβ1,3)GalNAcα-O-Me]",–,"Sialyltransferase activity (%) Cloned α2,3(O)ST [1, 3]: 35.2%; Sialyltransferase activity (%) LNCaP α2,3(O)ST (LNCaP α2,3(O)ST; [7]): 5.1%"
1820,197,–,"CC(=O)N[C@H]1[C@H](OC[C@H]2O[C@H](OCc3ccccc3)[C@H](NC(C)=O)[C@@H](O[C@@H]3O[C@H](CO)[C@H](O)[C@H](O)[C@H]3O[C@@H]3O[C@@H](C)[C@@H](O)[C@@H](O)[C@@H]3O)[C@H]2O)O[C@H](CO)[C@@H](O)[C@@H]1O [Fucα1,2Galβ1,3(GlcNAcβ1,6)GalNAcα-O-Bn]",–,"Sialyltransferase activity (%) Cloned α2,3(O)ST [1, 6]: 45.4%"
